Source: ChEMBL document CHEMBL1649270, “ST-246 inhibits in vivo poxvirus dissemination, virus shedding, and systemic disease manifestation” (2009)
The source made the active and inactive calls. No cut-off for these calls is given here.

Experiments:
Vaccinia virus WR [1] = assay: Antiviral activity against Vaccinia virus WR ATCC VR-1354 infected through percutaneous route in BALB/c mouse assessed as reduction of viral load in brain at 100 mg/kg, po qd measured after 7 days postinfection by RT-PCR analysis relative to control; assay type: functional, organism-based; set-up: dose 100 mg/kg
Vaccinia virus WR [2] = assay: Antiviral activity against Vaccinia virus WR ATCC VR-1354 infected through percutaneous route in BALB/c mouse assessed as reduction of viral load in spleen at 100 mg/kg, po qd for 1 day by RT-PCR analysis relative to control; assay type: functional
Vaccinia virus WR [3] = assay: Antiviral activity against Vaccinia virus WR ATCC VR-1354 infected through percutaneous route in BALB/c mouse assessed as reduction of viral load in blood at 100 mg/kg, po qd measured after 3 days postinfection by RT-PCR analysis relative to control; assay type: functional
Vaccinia virus WR [4] = assay: Antiviral activity against Vaccinia virus WR ATCC VR-1354 infected through percutaneous route in BALB/c mouse assessed as reduction of viral load in blood at 100 mg/kg, po qd measured after 7 days postinfection by RT-PCR analysis relative to control; assay type: functional, organism-based; set-up: dose 100 mg/kg
Vaccinia virus WR [5] = assay: Antiviral activity against Vaccinia virus WR ATCC VR-1354 infected through intravenous route in BALB/c mouse assessed as protection against virus-induced systemic disease symptoms at 100 mg/kg, po qd measured after 9 days postinfection; assay type: functional, organism-based; set-up: dose 100 mg/kg
Vaccinia virus WR [6] = assay: Antiviral activity against Vaccinia virus WR ATCC VR-1354 infected through percutaneous route in BALB/c mouse assessed as inhibition of virus dissemination in liver at 100 mg/kg, po qd for 3 to 14 days by RT-PCR analysis; assay type: functional, organism-based; set-up: dose 100 mg/kg
Vaccinia virus WR [7] = assay: Antiviral activity against Vaccinia virus WR ATCC VR-1354 infected through intraperitoneal route in BALB/c mouse assessed as reduction of viral load in lung at 100 mg/kg, po qd measured after 3 days postinfection by RT-PCR analysis relative to control; assay type: functional, organism-based; set-up: dose 100 mg/kg
Vaccinia virus WR [8] = assay: Antiviral activity against Vaccinia virus WR ATCC VR-1354 infected through percutaneous route in BALB/c mouse assessed as protection against weight loss at 100 mg/kg, po qd for 5 to 14 days measured on day 8; assay type: functional
Vaccinia virus WR [9] = assay: Antiviral activity against Vaccinia virus WR ATCC VR-1354 infected through percutaneous route in BALB/c mouse assessed as protection against virus-induced death at 100 mg/kg, po qd administered 3 days after postinfection measured on day 6; assay type: functional
Vaccinia virus WR [10] = assay: Antiviral activity against Vaccinia virus WR ATCC VR-1354 infected through percutaneous route in BALB/c mouse assessed as protection against hypothermia at 100 mg/kg, po qd for 5 to 14 days; assay type: functional, organism-based; set-up: dose 100 mg/kg
Vaccinia virus WR [11] = assay: Antiviral activity against Vaccinia virus WR ATCC VR-1354 infected through percutaneous route in BALB/c mouse assessed as protection against hypothermia at 100 mg/kg, po qd for 1 to 3 days measured on day 6; assay type: functional, organism-based; set-up: dose 100 mg/kg
Vaccinia virus WR [12] = assay: Antiviral activity against Vaccinia virus WR ATCC VR-1354 infected through percutaneous route in BALB/c mouse assessed as reduction of viral load in spleen at 100 mg/kg, po qd for 3 days by RT-PCR analysis relative to control; assay type: functional
Vaccinia virus WR [13] = assay: Antiviral activity against Vaccinia virus WR ATCC VR-1354 infected through percutaneous route in BALB/c mouse assessed as inhibition of virus dissemination in spleen at 100 mg/kg, po qd for 3 days by RT-PCR analysis relative to control; assay type: functional
Vaccinia virus WR [14] = assay: Antiviral activity against Vaccinia virus WR ATCC VR-1354 infected through percutaneous route in BALB/c mouse assessed as reduction of viral load in spleen at 100 mg/kg, po qd measured after 13 days postinfection by RT-PCR analysis relative to control; assay type: functional, organism-based; set-up: dose 100 mg/kg
Vaccinia virus WR [15] = assay: Antiviral activity against Vaccinia virus WR ATCC VR-1354 infected through dermal scarification route in BALB/c mouse assessed as reduction of viral load in lung at 100 mg/kg, po qd measured after 5 days postinfection by RT-PCR analysis relative to control; assay type: functional
Vaccinia virus WR [16] = assay: Antiviral activity against Vaccinia virus WR ATCC VR-1354 infected through percutaneous route in BALB/c mouse assessed as reduction of viral load in spleen at 100 mg/kg, po qd measured after 5 days postinfection by RT-PCR analysis relative to control; assay type: functional
Vaccinia virus WR [17] = assay: Antiviral activity against Vaccinia virus WR ATCC VR-1354 infected through percutaneous route in BALB/c mouse assessed as inhibition of virus dissemination in blood at 100 mg/kg, po qd for 3 to 14 days by RT-PCR analysis; assay type: functional, organism-based; set-up: dose 100 mg/kg
Vaccinia virus WR [18] = assay: Antiviral activity against Vaccinia virus WR ATCC VR-1354 infected through intravenous route in BALB/c mouse assessed as protection against virus-induced satellite lesion formation on tails at 100 mg/kg, po qd measured after 6 days postinfection; assay type: functional, organism-based; set-up: dose 100 mg/kg
Vaccinia virus WR [19] = assay: Antiviral activity against Vaccinia virus WR ATCC VR-1354 infected through intraperitoneal route in BALB/c mouse assessed as reduction of viral load in brain at 100 mg/kg, po qd measured after 3 days postinfection by RT-PCR analysis relative to control; assay type: functional, organism-based; set-up: dose 100 mg/kg
Vaccinia virus WR [20] = assay: Antiviral activity against Vaccinia virus WR ATCC VR-1354 infected through dermal scarification route in ACAM2000 vaccinated BALB/c mouse assessed as reduction of swab virus titers at 100 mg/kg, po qd measured after 14 days postinfection by RT-PCR analysis relative to control; assay type: functional
Vaccinia virus WR [21] = assay: Antiviral activity against Vaccinia virus WR ATCC VR-1354 infected through percutaneous route in BALB/c mouse assessed as inhibition of virus dissemination in spleen at 100 mg/kg, po qd for 1 day by RT-PCR analysis relative to control; assay type: functional
Vaccinia virus WR [22] = assay: Antiviral activity against Vaccinia virus WR ATCC VR-1354 infected through percutaneous route in BALB/c mouse assessed as inhibition of virus dissemination in brain at 100 mg/kg, po qd for 3 to 14 days by RT-PCR analysis; assay type: functional, organism-based; set-up: dose 100 mg/kg
Vaccinia virus WR [23] = assay: Antiviral activity against Vaccinia virus WR ATCC VR-1354 infected through dermal scarification route in BALB/c mouse assessed as protection against virus-induced satellite lesion formation on tails at 100 mg/kg, po qd measured after 6 days postinfection; assay type: functional, organism-based; set-up: dose 100 mg/kg
Vaccinia virus WR [24] = assay: Antiviral activity against Vaccinia virus WR ATCC VR-1354 infected through percutaneous route in BALB/c mouse assessed as reduction of viral load in brain at 100 mg/kg, po qd measured after 3 days postinfection by RT-PCR analysis relative to control; assay type: functional
Vaccinia virus WR [25] = assay: Antiviral activity against Vaccinia virus WR ATCC VR-1354 in african green monkey BSC-40 cells infected with 7 day postinfection nasal fluid from 100 mg/kg, po qd compound treated BALB/c mouse infected through percutaneous route assessed as reduction of viral attachment to cells by plaque titration assay; assay type: functional
Vaccinia virus WR [26] = assay: Antiviral activity against Vaccinia virus WR ATCC VR-1354 infected through subcutaneous route in BALB/c mouse assessed as protection against virus-induced satellite lesion formation on tails at 100 mg/kg, po qd measured after 6 days postinfection; assay type: functional, organism-based; set-up: dose 100 mg/kg

In the case of O=C(NN1C(=O)[C@@H]2[C@@H]3C=C[C@@H]([C@H]4C[C@@H]34)[C@@H]2C1=O)c1ccc(C(F)(F)F)cc1 [TECOVIRIMAT], the Activity (Vaccinia virus WR [1]) is reported as “Active”, the “fold change (FC)” value (Vaccinia virus WR [2]) is reported as 18 and the “fold change (FC)” value (Vaccinia virus WR [3]) is reported as 8. For the same compound, the Activity (Vaccinia virus WR [4]) was “Active”, the Activity (Vaccinia virus WR [5]) was “Active” and the Activity (Vaccinia virus WR [6]) was “Active”. The Activity (Vaccinia virus WR [7]) was “inactive”, the Activity (Vaccinia virus WR [8]) was over 70% and the Activity (Vaccinia virus WR [9]) was 100%. The Activity (Vaccinia virus WR [10]) was “Active”, the Activity (Vaccinia virus WR [11]) was “Active” and the “fold change (FC)” value (Vaccinia virus WR [12]) was 300. For the same compound, the “fold change (FC)” value (Vaccinia virus WR [13]) was 85, the Activity (Vaccinia virus WR [14]) was “Active” and the “fold change (FC)” value (Vaccinia virus WR [15]) was 18. The “fold change (FC)” value (Vaccinia virus WR [16]) was 44000, the Activity (Vaccinia virus WR [17]) was “Active” and the Activity (Vaccinia virus WR [18]) was “Active”. The Activity (Vaccinia virus WR [19]) was “inactive”, the “fold change (FC)” value (Vaccinia virus WR [20]) was 25 and the “fold change (FC)” value (Vaccinia virus WR [21]) was 17. For the same compound, the Activity (Vaccinia virus WR [22]) was “Active”, the Activity (Vaccinia virus WR [23]) was “Active” and the “fold change (FC)” value (Vaccinia virus WR [24]) was 1.78. The “fold change (FC)” value (Vaccinia virus WR [25]) was 22 and the Activity (Vaccinia virus WR [26]) was “Active”.
